Data as given in article PMC13107341, “Quinoline/thiazole compounds as selective acetylcholinesterase inhibitors: synthesis and biological assessment” (RSC Medicinal Chemistry, 2026).

What was measured:
[1] = biological target: AChE (Homo sapiens, UniProt P22303); test: Anticholinesterase enzyme activity, modified Ellman method (AChE); type: biochemical
Description: Anticholinesterase enzyme activity studies were conducted to evaluate the inhibitory potential of the synthesized compounds (Table 2).
(§1) The anticholinesterase enzyme activities of the compounds were investigated using the modified Ellman method. The details of this method have been presented in detail in our previous studies.[25–27]

[2] = biological target: BChE (Homo sapiens, UniProt P06276); test: Anticholinesterase enzyme activity, modified Ellman method (BChE); type: biochemical
Chain of BChE (P06276 29-602, species assumed): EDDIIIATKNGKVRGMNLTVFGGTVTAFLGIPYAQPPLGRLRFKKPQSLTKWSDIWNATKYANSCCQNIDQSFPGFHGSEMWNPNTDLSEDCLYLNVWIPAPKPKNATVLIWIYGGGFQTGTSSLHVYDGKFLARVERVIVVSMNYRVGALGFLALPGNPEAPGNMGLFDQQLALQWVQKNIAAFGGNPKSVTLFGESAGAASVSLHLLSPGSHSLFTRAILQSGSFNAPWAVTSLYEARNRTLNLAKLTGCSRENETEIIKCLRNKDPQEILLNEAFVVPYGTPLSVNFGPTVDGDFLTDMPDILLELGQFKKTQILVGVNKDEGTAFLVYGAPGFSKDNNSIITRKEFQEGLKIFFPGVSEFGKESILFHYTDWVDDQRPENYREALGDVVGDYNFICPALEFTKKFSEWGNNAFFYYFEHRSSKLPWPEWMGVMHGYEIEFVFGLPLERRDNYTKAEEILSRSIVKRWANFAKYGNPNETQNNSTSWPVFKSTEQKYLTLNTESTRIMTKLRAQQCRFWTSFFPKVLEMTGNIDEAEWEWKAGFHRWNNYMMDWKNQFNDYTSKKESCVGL
Description: Anticholinesterase enzyme activity studies were conducted to evaluate the inhibitory potential of the synthesized compounds (Table 2). Upon analysis of the results, compounds 3h and 3i stood out due to their notable IC50 values.
as §1

[3] = MTT cytotoxicity assay; settings: mouse
Description: Both the activity of a compound and its lack of cytotoxicity are criteria that determine whether it can be a potential drug candidate. To this end, the cytotoxic potential of the compounds was investigated on healthy fibroblast cells.
To spectroscopically determine the effects of the synthesized compounds on cell viability, MTT analysis was performed. This method is based on the fact that metabolically active living cells reduce the colorless MTT (3-(4,5-dimethylthiazol-2-yl)-2,5-diphenyltetrazolium) salt, converting it into purple formazan crystals. In the analysis, healthy NIH3T3 cell lines were seeded into 96-well plates at a cell density of […] and incubated with the compounds for 24 hours.[28–33]

Chain of AChE (P22303 32-614): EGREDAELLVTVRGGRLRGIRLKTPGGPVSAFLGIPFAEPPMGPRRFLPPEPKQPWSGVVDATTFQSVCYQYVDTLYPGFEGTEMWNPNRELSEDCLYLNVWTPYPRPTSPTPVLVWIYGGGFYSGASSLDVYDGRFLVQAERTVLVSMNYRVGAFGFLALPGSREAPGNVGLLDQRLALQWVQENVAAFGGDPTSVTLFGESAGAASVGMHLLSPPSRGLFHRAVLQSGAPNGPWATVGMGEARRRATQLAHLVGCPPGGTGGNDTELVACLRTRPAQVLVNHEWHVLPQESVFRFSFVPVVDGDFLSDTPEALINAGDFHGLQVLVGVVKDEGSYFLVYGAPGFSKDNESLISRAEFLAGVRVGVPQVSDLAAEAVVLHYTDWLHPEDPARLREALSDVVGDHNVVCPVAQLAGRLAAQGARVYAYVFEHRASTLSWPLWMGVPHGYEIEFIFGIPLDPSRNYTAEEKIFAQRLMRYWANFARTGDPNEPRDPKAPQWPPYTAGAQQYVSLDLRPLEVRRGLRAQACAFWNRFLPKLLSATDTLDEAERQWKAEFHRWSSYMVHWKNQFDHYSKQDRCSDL

Row | SMILES | IC50 [1] | IC50 [2] | IC50 at 24 h [3]
1 | CCn1c(-c2ccc(OC)cc2)csc1=NN=Cc1ccnc2ccccc12 [3c, 3-Ethyl-4-(4-methoxyphenyl)-2-((quinolin-4-ylmethylene)hydrazineylidene)-2,3-dihydrothiazole] | 3.68 ± 0.109 µM | > 10 µM | 
2 | CCn1c(-c2ccc(C)cc2)csc1=NN=Cc1ccnc2ccccc12 [3b, 3-Ethyl-2-((quinolin-4-ylmethylene)hydrazineylidene)-4-(p-tolyl)-2,3-dihydrothiazole] | > 10 µM | > 10 µM | 
3 | CCn1c(-c2ccc(O)c(O)c2)csc1=NN=Cc1ccnc2ccccc12 [3i, 4-(3-Ethyl-2-((quinolin-4-ylmethylene)hydrazineylidene)-2,3-dihydrothiazol-4-yl)benzene-1,2-diol] | 0.027 ± 0.002 µM | > 10 µM | 19.8 ± 0.627 µM
4 | CCn1c(-c2ccc(Cl)cc2)csc1=NN=Cc1ccnc2ccccc12 [3f, 4-(4-Chlorophenyl)-3-ethyl-2-((quinolin-4-ylmethylene)hydrazineylidene)-2,3-dihydrothiazole] | 4.75 ± 0.098 µM | > 10 µM | 
5 | COc1cccc2c1C(=O)c1c(O)c3c(c(O)c1C2=O)C[C@@](O)(C(=O)CO)C[C@@H]3O[C@H]1C[C@H](N)[C@H](O)[C@H](C)O1 [Doxorubicin, reference compound] |  |  | > 1000 µM
6 | CCn1c(-c2ccccc2)csc1=NN=Cc1ccnc2ccccc12 [3a, 3-Ethyl-4-phenyl-2-((quinolin-4-ylmethylene)hydrazineylidene)-2,3-dihydrothiazole] | > 10 µM | > 10 µM | 
7 | CCn1c(-c2ccc(F)cc2)csc1=NN=Cc1ccnc2ccccc12 [3e, 3-Ethyl-4-(4-fluorophenyl)-2-((quinolin-4-ylmethylene)hydrazineylidene)-2,3-dihydrothiazole] | 1.87 ± 0.678 µM | > 10 µM | 
8 | CCn1c(-c2ccc(Cl)c(Cl)c2)csc1=NN=Cc1ccnc2ccccc12 [3h, 4-(3,4-Dichlorophenyl)-3-ethyl-2-((quinolin-4-ylmethylene)hydrazineylidene)-2,3-dihydrothiazole] | 0.107 ± 0.07 µM | > 10 µM | 36.1 ± 0.968 µM
9 | CCn1c(-c2ccc([N+](=O)[O-])cc2)csc1=NN=Cc1ccnc2ccccc12 [3d, 3-Ethyl-4-(4-nitrophenyl)-2-((quinolin-4-ylmethylene)hydrazineylidene)-2,3-dihydrothiazole] | > 10 µM | > 10 µM | 
10 | CCn1c(-c2ccc(C#N)cc2)csc1=NN=Cc1ccnc2ccccc12 [3g, 4-(3-Ethyl-2-((quinolin-4-ylmethylene)hydrazineylidene)-2,3-dihydrothiazol-4-yl)benzonitrile] | 9.96 ± 0.208 µM | > 10 µM | 
